Laboratory results from PubChem BioAssay (NCI).
Several values for one entry are separate records, joined by “and”; a condition that tells them apart may be missing. Equal values may be shown once.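 The compound was tested at five concentrations on cells cultured in 96-well plates, with a 48-hour exposure period. GI50: concentration for 50% inhibition of growth. TGI marks complete inhibition of growth.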

What was measured:
Assay in all cases: DTP human tumour cell line panel, 48 h
[1] = tested on: A549 NSCLC
[2] = tested on: CCRF-CEM leukemia
[3] = tested on: HCT-15 colon
[4] = tested on: HT29 colon
[5] = tested on: KM12 colon
[6] = tested on: RPMI-8226 leukemia
[7] = tested on: RXF 393 renal
[8] = tested on: U251 CNS
[9] = tested on: UO-31 renal
[10] = tested on: OVCAR-3 ovarian

Compound | TGI [1] | TGI [2] | TGI [3] | TGI [4] | TGI [5] | TGI [6] | TGI [7] | TGI [8] | TGI [9] | TGI [10] | GI50 [9] | GI50 [3] | GI50 [7]
O=C1CN(c2ccccc2)Cc2nc(Cl)ccc2N1 | > 100 µM | > 100 µM | > 100 µM | > 100 µM | > 100 µM | > 100 µM | > 100 µM | > 100 µM | > 100 µM |  |  |  | 
O=C1N=C2SC=C(NC(=S)Nc3ccccc3)N2NC12c1ccccc1-c1ccccc12 | > 10 µM | > 10 µM | > 10 µM | > 10 µM | > 10 µM | > 10 µM | > 10 µM |  | > 10 µM |  |  |  | 
CC(C)C1CNC(=O)C2(C=NC(C(C)C)CNC(=O)C3(C=N1)CCCO3)CCCO2 (stereo unspecified) | > 10 µM | > 10 µM | > 10 µM | > 10 µM | > 10 µM | > 10 µM | > 10 µM | > 10 µM |  | > 10 µM |  |  | 
O=C(NCCN1CCCCC1)c1ccc(Br)cc1 | > 100 µM |  | > 100 µM | > 100 µM | > 100 µM | > 100 µM | > 100 µM | > 100 µM | > 100 µM | > 100 µM |  |  | 
O=[N+]([O-])c1ccc(SN=S=NSc2cccc(SN=S=NSc3ccc([N+](=O)[O-])cc3)c2)cc1 | > 100 µM | 42.5 µM | 57.8 µM | > 100 µM | > 100 µM | > 100 µM |  | 32 µM | 70.2 µM | > 100 µM |  |  | 
C=CCCC1(O)C(O)C(CO)O[C@H](O[C@@]2(CO)OC(CO)C(O)C2O)C1O (stereo partly specified) | > 100 µM | > 100 µM | > 100 µM | > 100 µM | > 100 µM | > 100 µM |  | > 100 µM |  |  |  |  | 
CCS(=O)C(=O)N(O)c1ccc(Cl)cc1 (stereo unspecified) | > 100 µM | 63.2 µM | 68.5 µM |  | 47.2 µM | 20.4 µM | 41.6 µM | 44.6 µM | 46.7 µM | > 100 µM |  |  | 
CCCCOCCOCCOC1=CC(=O)c2c(O)ccc(O)c2C1=O | 3.43 µM | 6.01 µM |  |  | 3.3 µM | > 10 µM | 3.63 µM | 3.29 µM | 2.93 µM | 3 µM |  |  | 
CCOC(=O)N/N=C(/N)c1cccc(Br)c1 | > 100 µM | > 100 µM | > 100 µM | > 100 µM | > 100 µM |  | > 100 µM |  | > 100 µM | > 100 µM |  |  | 
Clc1ccc(Nc2nnc(CNc3ccc(-c4nnc(Nc5ccc(Cl)cc5)s4)cc3)s2)cc1 | > 100 µM |  | > 100 µM | 24.4 µM | 36.6 µM | > 100 µM | > 100 µM | > 100 µM | 44.2 µM |  |  |  | 
CCOc1ccccc1N=Nc1ccc2oc(=O)c(C(C)=O)cc2c1 | > 100 µM | > 100 µM | > 100 µM | > 100 µM | > 100 µM | > 100 µM |  | > 100 µM | > 100 µM | > 100 µM |  |  | 
COc1cc2c(c(OC)c1OC)-c1ccc(SC)c(=O)cc1[C@@H](NCc1ccc(F)cc1)CC2 | 75 µM and > 100 µM | 10.2 µM and > 100 µM | 7.64 µM | < 0.0075 µM |  | 31.2 µM | 75 µM and 19.5 µM |  | 75 µM and 95.9 µM | < 0.0075 µM | < 0.0075 µM |  | 
CCCCCCCC/C=C1\CCC(CN(C)C)C1=O (stereo unspecified) | 39.9 µM | 6.96 µM | 7.5 µM | 12.5 µM | 7.09 µM | 0.763 µM |  | 4.38 µM | 25.2 µM | 22 µM |  |  | 
O=C1NC2NC3NC(=O)NC3NC2N1 (stereo unspecified) | > 100 µM | > 100 µM |  | > 100 µM | > 100 µM | > 100 µM | > 100 µM | > 100 µM | > 100 µM | > 100 µM |  |  | 
C=C1CC(C)(COc2ccc3c(C)c(Cl)c(=O)oc3c2)OC1=O (stereo unspecified) | 25.5 µM | 2.54 µM | 5.86 µM | 3.48 µM | 14.5 µM | 1.83 µM |  | 21 µM | 9.63 µM | 16.9 µM |  |  | 
CC1=C(c2nc3ccccc3s2)C(=O)OC1(C)C | > 100 µM | > 100 µM | > 100 µM | > 100 µM | > 100 µM | > 100 µM |  | > 100 µM | > 100 µM | > 100 µM |  |  | 
CC(C)(C)OC(=O)NC1CCCC1C(=O)C1=CCCC1 (stereo unspecified) | > 100 µM | > 100 µM | > 100 µM | > 100 µM | > 100 µM | > 100 µM | > 100 µM | > 100 µM |  | > 100 µM |  |  | 
FC(F)(F)c1ccccc1C1SCC2=Nc3ccccc3CN21 (stereo unspecified) | 27.6 µM | 95 µM | 27.1 µM | 30 µM | 25.5 µM | > 100 µM | 22 µM | > 100 µM | 24.1 µM |  |  |  | 
CC1=CC(=O)CC2(C)CCC(C(C)CC(=O)CC(C)C)CC12OO (stereo unspecified) | 30 µM and 31.1 µM | 59.8 µM and 46.6 µM | 30.1 µM and > 100 µM | 43.2 µM and 31.1 µM | 33.2 µM and 29.4 µM | 76.5 µM and 46.1 µM | 26.2 µM and > 100 µM | 31.4 µM and 33.1 µM | 29.8 µM and 34.7 µM |  |  | 16.5 µM and 35.3 µM | 12.5 µM and 32.6 µM
[N-]=[N+]=Nc1ccccc1-c1ccccc1[N+](=O)[O-] | > 100 µM |  | > 100 µM | > 100 µM | > 100 µM | > 100 µM | > 100 µM | > 100 µM | > 100 µM | > 100 µM |  |  | 
CC(C)c1cccc(C(C)C)c1NC(=O)C(=O)Cc1nc2ccc([N+](=O)[O-])cc2[nH]c1=O | > 100 µM | > 100 µM | 48.9 µM | > 100 µM | 28.7 µM |  | > 100 µM |  | > 100 µM | > 100 µM |  |  | 
Cc1c(O)c(=O)ccn1CCN | > 100 µM | > 100 µM | > 100 µM | > 100 µM | > 100 µM | > 100 µM | > 100 µM | > 100 µM | > 100 µM |  |  |  | 
N#CCCn1[nH]c(=O)c(Cl)c(Cl)c1=O | 59.4 µM |  | 24.6 µM | 24.2 µM | 32.1 µM | 37.5 µM | 32.2 µM | 30.3 µM | 34.7 µM | 26.7 µM |  |  | 
C1CNOCCCONCCCNOCCCONC1 | > 100 µM | > 100 µM | > 100 µM | > 100 µM | > 100 µM |  | 64.2 µM | > 100 µM | > 100 µM | > 100 µM |  |  | 
